Reference: ChEMBL document CHEMBL1157243, “The sapogenin atroviolacegenin and its diglycoside atroviolaceoside from Allium atroviolaceum” (2006)
The source made the active and inactive calls. The rule behind the calls is not given here.

These compounds were tested on Ileum (assay: Antispasmodic activity in guinea pig ileum assessed as inhibition of histamine-induced tissue contraction at 10^-8 to 10^-5 M after 30 mins). Settings: not given.
Type: functional, Cavia porcellus

Row | SMILES | inhibition (INH)
1 | C[C@H](CC[C@@]1(O)O[C@H]2C[C@H]3[C@@H]4CC=C5C[C@@H](O)C[C@@H](O[C@@H]6OC[C@@H](O)[C@H](O)[C@H]6O)[C@]5(C)[C@H]4CC[C@]3(C)[C@H]2[C@@H]1C)CO[C@@H]1O[C@H](C)[C@@H](O)[C@H](O)[C@@H]1O [TROPEOSIDE B1] | 50%
2 | C[C@H](CC[C@]1(O)O[C@H]2C[C@H]3[C@@H]4CC=C5C[C@@H](O)C[C@@H](O[C@@H]6OC[C@@H](O)[C@H](O)[C@H]6O)[C@]5(C)[C@H]4CC[C@]3(C)[C@H]2[C@@H]1C)CO[C@@H]1O[C@H](C)[C@@H](O)[C@H](O)[C@@H]1O [TROPEOSIDE B2] | 50%
3 | C[C@H](CC[C@@]1(O)O[C@H]2C[C@H]3[C@@H]4CC=C5C[C@@H](O)C[C@@H](O[C@@H]6O[C@H](CO)[C@H](O)[C@H](O)[C@H]6O)[C@]5(C)[C@H]4CC[C@]3(C)[C@H]2[C@@H]1C)CO[C@@H]1O[C@H](C)[C@@H](O)[C@H](O)[C@@H]1O [TROPEOSIDE A1] | 50%
4 | C[C@H](CC[C@]1(O)O[C@H]2C[C@H]3[C@@H]4CC=C5C[C@@H](O)C[C@@H](O[C@@H]6O[C@H](CO)[C@H](O)[C@H](O)[C@H]6O)[C@]5(C)[C@H]4CC[C@]3(C)[C@H]2[C@@H]1C)CO[C@@H]1O[C@H](C)[C@@H](O)[C@H](O)[C@@H]1O [TROPEOSIDE A2] | 50%
5 | C[C@H]1[C@H]2[C@H](C[C@H]3[C@@H]4C[C@@H](O)[C@H]5C[C@@H](O[C@@H]6O[C@H](CO)[C@H](O[C@@H]7O[C@H](CO)[C@@H](O)[C@H](O)[C@H]7O)[C@H](O)[C@H]6O)[C@H](O)C[C@]5(C)[C@H]4CC[C@]23C)O[C@]12CC[C@@H](CO)CO2 [ATROVIOLACEOSIDE] | 0%

Same assay, conditions: Cavia porcellus

Row | SMILES | Activity
6 | C[C@H]1[C@H]2[C@H](C[C@H]3[C@@H]4C[C@@H](O)[C@H]5C[C@@H](O)[C@H](O)C[C@]5(C)[C@H]4CC[C@]23C)O[C@]12CCC(CO)CO2 (single isomer, unassigned) | inactive
